System: duodenum
Experiment: Antispasmodic activity: barium chloride-induced contraction of isolated rat duodenum (Magnus)
Conditions: barium chloride 10^-4 M, isolated rat duodenum, 37° C.; mean of 5 to 6 determinations
Method: Fragments of duodenum are removed from male rats (200 g), fasted for 24 hours and killed by decapitation, and are mounted, after being washed, in a thermostatted (37° C.) isolated organ cell and maintained in survival in Tyrode's solution according to Magnus's classical technique.
The spasmogenic agent used is barium chloride (10^-4 M).
In the first instance, the spasmogenic agent is added to the nutrient bath and, as soon as the contraction of the organ reaches its maximum, the relaxant agent is added to the medium. Working in relation to a fixed concentration of barium chloride with variable concentrations of relaxant, the ED50 of the latter, capable of reducing the induced contraction by 50%, is determined.
The results expressed in Table IV below show the ratio ED50 Theo/ED50 product, established on the basis of the mean of the results of 5 to 6 determinations per product (ED50theophylline=8×10^-4 M).

SMILES | ED50 Theo/ED50 product (antispasmodic activity)
CCNc1ncc(Cl)n2ccnc12 [Compound 12, 5-Chloro-8-ethylaminoimidazo[1,2-a]pyrazine] | 27

System: histamine-induced bronchoconstriction, guinea pigs
Experiment: Antibronchospastic activity: histamine-induced bronchospasm in anesthetized guinea pigs
Format: in vivo, guinea pig
Conditions: intravenous, 30 seconds before histamine; mean of 5 to 8 determinations
Method: Guinea pigs of both sexes weighing between 400 and 600 g are anesthetized with ethyl carbamate ([…] i.p.). After tracheotomy, the animal is placed under artificial respiration at a constant flowrate (Palmer pump 1 m1/100 g×60/min). A take-off at the tracheal cannula enables the volume of air to be gaged at each inhalation by means of a Marey drum. Bronchospasm is induced by intraveneous (jugular) administration of histamine. For each animal, the dose of histamine (8 to 12 μg/kg) inducing an increase in the recording trace equal to double its initial value is determined. The dose adopted should provide three identical responses at intervals of 10 minutes.
The test product is administered intraveneously and then, 30 seconds later, histamine is administered again.

SMILES | ED50 Theo/ED50 product (bronchospasm induced in guinea pigs)
CCCNc1nc(Br)cn2cc(C(=O)OCC)nc12 [Compound 25, ethyl 6-bromo-8-propylaminoimidazo[1,2-a]pyrazine-2-carboxylate] | < 1
CCCNc1nccn2cc(C(=O)OCC)nc12 [Compound 19, ethyl 8-propylaminoimidazo[1,2-a]pyrazine-2-carboxylate] | < 1
CCOC(=O)c1cn2cc(Br)nc(NC(C)CC)c2n1 (centres unmarked) [Compound 27, ethyl 6-bromo-8-sec-butylaminoimidazo[1,2-a]pyrazine-2-carboxylate] | < 1
CCOC(=O)c1cn2ccnc(N3CCCCC3)c2n1 [Compound 20, ethyl 8-piperidylimidazo[1,2-a]pyrazine-2-carboxylate] | 1
CCOC(=O)Cc1cn2cc(Br)nc(N)c2n1 [Compound 32, ethyl 8-amino-6-bromoimidazo[1,2-a]pyrazine-2-acetate] | 1.6
CCOC(=O)c1cn2ccnc(NC)c2n1 [Compound 18, ethyl 8-methylaminoimidazo[1,2-a]pyrazine-2-carboxylate] | 1
Brc1cn2ccnc2c(N2CCOCC2)n1 [Compound 11, 6-bromo-8-morpholinoimidazo[1,2-a]pyrazine] | 1
N#Cc1cn2cc(Br)nc(N3CCOCC3)c2n1 [Compound 35, 6-Bromo-8-morpholinoimidazo[1,2-a]pyrazine-2-carbonitrile] | < 1
Nc1nccn2c(Br)cnc12 [Compound 5, 8-amino-3-bromoimidazo[1,2-a]pyrazine] | 2
CCOC(=O)Cc1cn2cc(Br)nc(NC)c2n1 [Compound 33, Ethyl 6-bromo-8-methylaminoimidazo[1,2-a]pyrazine-2-acetate] | 1
CCOC(=O)c1cn2cc(Br)nc(N)c2n1 [Compound 22, ethyl 8-amino-6-bromoimidazo[1,2-a]pyrazine-2-carboxylate] | 1.5
CNc1nc(Br)cn2c(Br)cnc12 [Compound 14, 3,6-dibromo-8-methylaminoimidazo[1,2-a]pyrazine] | 1.9
CCOC(=O)c1cn2ccnc(N3CCOCC3)c2n1 [Compound 21, ethyl 8-morpholinylimidazo[1,2-a]pyrazine-2-carboxylate] | < 1
Brc1cn2c(Br)cnc2c(N2CCCCC2)n1 [Compound 38, 3,6-dibromo-8-piperidylimidazo[1,2-a]pyrazine] | 1.1
CCOC(=O)c1cn2cc(Br)nc(N3CCCCC3)c2n1 [Compound 28, ethyl 6-bromo-8-piperidylimidazo[1,2-a]pyrazine-2-carboxylate] | < 1
Brc1cn2c(Br)cnc2c(N2CCOCC2)n1 [Compound 16, 3,6-dibromo-8-morpholinoimidazo[1,2-a]pyrazine] | 1
Nc1nc(Br)cn2c(Br)cnc12 [Compound 13, 8-Amino-3,6-dibromoimidazo[1,2-a]pyrazine] | 3.5
Brc1cn2c(Br)cnc2c(NCc2ccco2)n1 [Compound 37, 3,6-dibromo-8-furfurylaminoimidazo[1,2-a]pyrazine] | 1.4
CCNc1nc(Br)cn2cc(C(=O)OCC)nc12 [Compound 24, ethyl 6-bromo-8-ethylaminoimidazo[1,2-a]pyrazine-2-carboxylate] | 1
CCOC(=O)c1cn2cc(Br)nc(NCCO)c2n1 [Compound 30, ethyl 6-bromo-8-(2-hydroxyethylamino)imidazo[1,2-a]pyrazine-2-carboxylate] | < 1
CNc1nc(Br)cn2cc(C(N)=O)nc12 [Compound 31, 6-Bromo-8-methylaminoimidazo[1,2-a]pyrazine-2-carboxamide] | 1
CCOC(=O)c1cn2cc(Br)nc(NC)c2n1 [Compound 23, ethyl 6-bromo-8-methylaminoimidazo[1,2-a]pyrazine-2-carboxylate] | 1
CCOC(=O)c1cn2cc(Br)nc(N3CCOCC3)c2n1 [Compound 29, ethyl 6-bromo-8-morpholinylimidazo[1,2-a]pyrazine-2-carboxylate] | 1
CCNc1nc(Br)cn2c(Br)cnc12 [Compound 15, 3,6-dibromo-8-ethylaminoimidazo[1,2-a]pyrazine] | 1.6
CNC(=O)c1nc2c(NC)nc(Cl)c(Cl)n2c1Cl [Compound 34, 3,5,6-Trichloro-8-methylamino-N-methylimidazo[1,2-a]pyrazine-2-carboxamide] | 1.2
CCCCNc1nc(Br)cn2cc(C(=O)OCC)nc12 [Compound 26, ethyl 6-bromo-8-butylaminoimidazo[1,2-a]pyrazine-2-carboxylate] | < 1
Brc1cn2ccnc2c(NCc2ccco2)n1 [Compound 36, 6-bromo-8-furfurlaminoimidazo[1,2-a]pyrazine] | < 1

System: guinea pig trachea
Experiment: Isolated guinea pig trachea: anti-contractional activity against carbachol
Conditions: carbachol 10^-4 M, isolated guinea pig trachea; mean of 5 to 6 determinations
Method: Guinea pigs of both sexes weighing on average 400 to 600 g are sacrificed, and the tracheas are removed and placed at 37° C. in an oxygenated environment (95% O2 -5% CO2) in Krebs fluid of the following composition (mM): NaCl (116), MgSO4 (1.2), KCl (3.7), CaCl2 (2.6), KH2 PO4 (2.2), NaHCO3 (24.9), glucose (10). The tracheal segments are then mounted horizontally between two hooks, one of which is fixed to the base of the isolated organ cell and the other is attached to a myograph under a tension of 0.5 g. The organ is left at rest for one hour and is subjected to four washes. The contraction-inducing reagent (carbachol) is added at a concentration (10^-4 M) greater than the concentration giving the maximum effect. After stabilization of the contractional effect, gradually increasing accumulative amounts of the test products are added to the cell. The bronchodilatory effect is measured as the percentage inhibition of the maximal contraction and EC50 represents the concentration inhibiting this concentration by 50%.

EC50 Theo/EC50 product (anti-contractional activity, trachea) | SMILES
1.5 | Nc1nccn2ccnc12 [Compound 1, 8-aminoimidazo[1,2-a]pyrazine]
< 1 | CNc1nccn2ccnc12 [Compound 2, 8-methylaminoimidazo[1,2-a]pyrazine]
< 1 | c1cn2ccnc2c(N2CCOCC2)n1 [Compound 4, 8-Morpholinoimidazo[1,2-a]pyrazine]
< 1 | Brc1cn2ccnc2c(N2CCOCC2)n1 [Compound 11, 6-bromo-8-morpholinoimidazo[1,2-a]pyrazine]
11 | Nc1nccn2c(Br)cnc12 [Compound 5, 8-amino-3-bromoimidazo[1,2-a]pyrazine]
< 1 | c1coc(CNc2nccn3ccnc23)c1 [Compound 39, 8-furfurylaminoimidazo[1,2-a]pyrazine]
1 | CCNc1nccn2ccnc12 [Compound 3, 8-ethylaminoimidazo[1,2-a]pyrazine]
5 | CCNc1nccn2c(Br)cnc12 [Compound 7]

System: mice
Experiment: Motor activity: spontaneous activity in mice (neurosedative effect)
Format: in vivo, mouse
Conditions: 55 μmol/kg intraperitoneally, male mice, 50 minutes
Method: The measurement of the neurosedative effect is based on the test of activity measurements in mice. […] Five minutes after the administration, the animals are placed in activity-measuring cages, which record their movements digitally by means of the interruption of beams of light. The results are recorded in Table IX and expressed as the percentage variation (increase or decrease ) in activity compared with the controls during a period of 50 minutes following the administration.

SMILES | spontaneous activity - % variation compared with the controls, decrease (.dwnarw.)
CCOC(=O)c1cn2cc(Br)nc(NC)c2n1 [Compound 23, ethyl 6-bromo-8-methylaminoimidazo[1,2-a]pyrazine-2-carboxylate] | 43%

Same assay, conditions: 166 μmol/kg intraperitoneally, male mice, 50 minutes

SMILES | spontaneous activity - % variation compared with the controls, decrease (.dwnarw.)
CCOC(=O)c1cn2cc(Br)nc(NC)c2n1 [Compound 23, ethyl 6-bromo-8-methylaminoimidazo[1,2-a]pyrazine-2-carboxylate] | 56%
